Where “and” joins values, the source holds several entries; their conditions need not be identical. Identical values can stand only once. Like-named read-outs stand apart in the source and are kept apart here.
Experiments:
[1] = humans, 5 g oral dose of a botanical mixture of 7 herbs; ref [28]; cited from earlier work
[2] = type: in vivo, rat
[3] = ref [18][19][21][25][26][27], cited from earlier work
[4] = intravenous 20 mg/kg, achiral, approximate; ref [25][26]; cited from earlier work
[5] = rat serum, IV 20 mg/kg racemic liquiritigenin, mean ± SEM, n = 4, 20 mg/kg
[6] = oral, given alone or in a mixture (exact dose unknown), approximate

| Structure (SMILES) | fraction excreted unchanged in the urine (fe %) [1] [%] | t1/2 serum [2, 5] | bioavailability ([3]; Kang, et al., oral doses of 20-50 mg/kg) | AUC [3, 6] [ng·h/mL] | plasma half-lives [3, 6] [h] | time liquiritigenin could be measured in serum ([2]; rat serum) | time liquiritigenin could be measured (detected) in urine ([2]; rat urine) | Vss ([2]; rat, IV 20 mg/kg racemic liquiritigenin, mean ± SEM, n = 4, 20 mg/kg) [L/kg] | AUC [4] [µg·min/mL] | clearances [4] [mL/min/kg] | plasma half-lives [4] [min] |
| --- | --- | --- | --- | --- | --- | --- | --- | --- | --- | --- | --- |
| O=C1C[C@H](c2ccc(O)cc2)Oc2cc(O)ccc21 [R-liquiritigenin] | 50.9 ± 21.6 | 32.59 ± 4.26 min |  |  |  |  |  |  |  |  |  |
| O=C1C[C@@H](c2ccc(O)cc2)Oc2cc(O)ccc21 [S-liquiritigenin] | 36.2 ± 19.0 |  |  |  |  |  |  |  |  |  |  |
| O=C1C[C@@H](c2ccc(O)cc2)Oc2cc(O)ccc21 [liquiritigenin] |  | 12 to 30 min and 15 to 32.4 min and 15 to 25.8 min | 3-7% | 19 to 6594 | 3 to 11 | only an hour | up to 70 h | 2.7 to 4.6 | 290 to 410 | 50 to 70 | 5 to 8 |

Source: article PMC5465826 (Research in Pharmaceutical Sciences, 2017)
